The target of data set [1] is T1, TPH1 (Mus musculus, UniProt P17532).
T1 construct: host or cells: mice (in vivo)
T1 sequence (P17532 1-447): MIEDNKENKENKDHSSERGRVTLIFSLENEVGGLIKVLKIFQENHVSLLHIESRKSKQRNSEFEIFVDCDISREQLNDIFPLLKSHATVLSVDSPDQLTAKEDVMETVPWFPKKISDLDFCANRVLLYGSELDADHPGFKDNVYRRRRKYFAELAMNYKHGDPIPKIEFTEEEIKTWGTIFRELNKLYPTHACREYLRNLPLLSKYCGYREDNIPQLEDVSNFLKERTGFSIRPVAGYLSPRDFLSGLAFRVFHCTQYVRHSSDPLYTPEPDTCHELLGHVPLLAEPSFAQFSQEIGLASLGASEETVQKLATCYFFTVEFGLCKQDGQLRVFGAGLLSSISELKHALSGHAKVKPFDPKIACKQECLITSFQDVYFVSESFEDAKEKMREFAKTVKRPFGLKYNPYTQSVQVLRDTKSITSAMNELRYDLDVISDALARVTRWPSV
Particulars: U.S. Pat. No. 9,199,994, Example 63i and Table 27; cited from earlier work.

A short description of data set [2]: Shake-flask solubility determination with stepwise addition of solvent. Format: physicochemical. An excerpt:
The method applied was a shake-flask solubility determination with stepwise addition of the solvent until complete dissolution is observed visually.

Data set [3] in a line: Thermodynamic stability of polymorphs. Particulars: particularly at temperatures of less than 95° C., more particularly less than 80° C. Type of data set: physicochemical.
The nature of data set [4]: Solubility of Compound 1, Form 3 in MTBE/n-heptane mixtures. Format: physicochemical. The settings on record: organic solvent or mixture, thermodynamic from solid. On the procedure: Solubility of Compound 1, Form 3
The solubility of Compound 1 was evaluated in mixtures of MTBE/n-heptane mixtures at 10° C. and 45° C. The form of the residual solids was examined by XRPD.

A short description of data set [5]: Solubility determination by HPLC. Format: physicochemical. Particulars: ethanol. An excerpt:
Because of the small differences in solubilities, HPLC was used to measure the solubilities. The values were conformed to the shake-flask results. […] In alcohol, there was a difference in dissolution rate. This difference was not observed for aqueous solutions.

In brackets after ≈: the same amount, converted by molar mass.

What is called solubility is how much of the substance goes into solution per volume.

Turning to `CCOC(=O)[C@@H]1CC2(CCN(c3cc(O[C@H](c4ccc(Cl)cc4-c4ccccc4)C(F)(F)F)nc(N)n3)CC2)CN1` [(S)-ethyl 8-(2-amino-6-((R)-1-(5-chloro-[1,1′-biphenyl]-2-yl)-2,2,2-trifluoroethoxy)pyrimidin-4-yl)-2,8-diazaspiro[4.5]decane-3-carboxylate], the “efficacy in inhibiting TPH1 in mice” value in data set [1] is listed as “demonstrated”.
Consider `CCOC(=O)[C@@H]1CC2(CCN(c3cc(O[C@H](c4ccc(Cl)cc4-c4ccccc4)C(F)(F)F)nc(N)n3)CC2)CN1` [Form 3, (S)-ethyl 8-(2-amino-6-((R)-1-(5-chloro-[1,1′-biphenyl]-2-yl)-2,2,2-trifluoroethoxy)pyrimidin-4-yl)-2,8-diazaspiro[4.5]decane-3-carboxylate], for which the solubility is 106 to 1060 mg/mL in data set [2] (2-methyl-tetrahydrofuran); less than 10.1 mg/mL in data set [2] (2-propanol); 35 to 104 mg/mL in data set [2] (I-propanol); 108 to 1080 mg/mL in data set [2] (N,N-dimethyl-acetamide); 104 to 1040 mg/mL in data set [2] (acetic acid); 108 to 1080 mg/mL in data set [2] (acetone). Moreover, the solubility in data set [2] (acetonitrile) lay in the range of 99 to 990 mg/mL; in data set [2] (dimethyl sulfoxide) it was 109 to 1090 mg/mL; in data set [2] (ethanol) it was 33 to 100 mg/mL; in data set [2] (ethyl acetate), 95 to 950 mg/mL; in data set [2] (formic acid 99%) it was 96 to 960 mg/mL; in data set [2] (isopropyl acetate), 94 to 940 mg/mL. Moreover, the solubility was 102 to 1020 mg/mL in data set [2] (methanol); 100 to 1000 mg/mL in data set [2] (methyl isobutyl); 106 to 1060 mg/mL in data set [2] (methyl tert-butyl ether); less than 9.9 mg/mL in data set [2] (n-heptane); 99 to 990 mg/mL in data set [2] (tetrahydrofuran); 105 to 1050 mg/mL in data set [2] (toluene). The solubility is less than 10.0 mg/mL in data set [2] (water); greater than 500 mg/mL in data set [4] (MTBE/n-heptane 1/0, 45 °C); 27.2 mg/mL (≈ 46.1 mM) in data set [4] (MTBE/n-heptane 1/1, 10 °C); 89.4 mg/mL (≈ 152 mM) in data set [4] (MTBE/n-heptane 1/1, 45 °C); 17.5 mg/mL (≈ 29.7 mM) in data set [4] (MTBE/n-heptane 1/2, 10 °C); 6.2 mg/mL (≈ 10.5 mM) in data set [4] (MTBE/n-heptane 1/4, 10 °C). Besides, the solubility in data set [4] (MTBE/n-heptane 1/5, 45 °C) stood at 4.2 mg/mL (≈ 7.12 mM). In addition, in data set [3], the “thermodynamic stability compared to crystalline Form 1” value was “substantially greater thermodynamic stability”. Besides, the “dissolution of remaining slurry in time” value in data set [5] is “dissolved completely”.
